Patent US7498404B2, “Compositions, methods and uses for a novel family of peptides” (priority 2004, dated 2009)

Legend:
[1] = system: Module 2 A-domain protein; assay: ATP-PPi exchange assay, Module 2 A-domain; type: biochemical, Brevibacillus texasporus; conditions: 0.5 mM amino acid, 37° C., 15 min
Description: (§1) Cloning, overexpression, and purification of His10-tagged BT A-domain proteins. DNA fragments encoding the A-domains of the BT NRPS Modules 8, 5, 7, 4 and 2 (Bt8A, Bt5A, Bt7A, Bt4A and Bt2A) were PCR-amplified and the PCR products were inserted into the His10-tag recombinant protein expression vector pET16b (Novagen). The A-domain borders were determined as defined by (Konz, et al., 1999). The expression constructs were transformed into the E.coli BL21 -AI strain (Invitrogen). Transformants were grown in L-broth at 37° C. to an A600 of 0.6 and then induced with 1 mM IPTG (isopropyl-β-D-thiogalactopyranoside) plus 0.2% L-arabinose. The cells were allowed to grow for two additional hours at 30° C. before being harvested. Purification of the His10-tag recombinant proteins was achieved using the TALON metal affinity resins (BD Biosciences) under conditions recommended in the manual with modifications. Briefly, the E. coli cells were broken by sonication. Cell lysates were cleared by centrifugation at 25,000× g for one hour. His-tagged recombinant proteins were then incubated with the TALON resin, washed, and eluted with 500 mM imidazole. Eluted proteins were dialyzed against a buffer (50 mM HEPES, pH 8.0, 100 mM sodium chloride, 10 mM magnesium chloride, and 1 mM EDTA) and then analyzed with SDS PAGE plus Coomassie Blue staining. […] Concentrations of the purified proteins were determined by using the calculated molar extinction coefficient for the A280.
ATP-PPi exchange assay. ATP-PPi exchange assays were performed to determine the substrate specificity of an A-domain. ATP-PPi exchanges were assayed as previously described (Stachelhaus, et al., 1998) with minor modifications. The assay mixture contained 50 mM HEPES (pH 8.0), 100 mM NaCl, 10 mM MgCl2, 2 mM ATP, 0.5 mM amino acid, 0.05 mM PPi, 0.15 μCi tetrasodium [^32P]pyrophosphate. Exchange was initiated by addition of purified recombinant A-domain proteins to a total volume of 0.1 ml. The protein concentrations were 0.2 μM for Module 4 and Module 5 A-domains while 2 μM for Module 7 and Module 8 A-domains. After incubation at 37° C. for 15 min, the reaction was stopped by addition of 0.5 ml of Termination Mix (100 mM tetrasodium pyrophosphate, 3.5% HClO4, and 1.6% [w/v] activated charcoal). The charcoal was pelleted by centrifugation, washed first with 40 mM pyrophosphate plus 1.4% perchloric acid and then with water, and was re-suspended in 0.5 ml of water. The charcoal/water suspension was added to a scintillation vial containing 5.0 ml of scintillation fluid, and the bound radioactivity was determined by liquid scintillation counting. The apparent Km values were determined with substrate concentrations ranging from 0.1 to 10 mM.
Since a purified recombinant A-domain of an NRPS module can selectively and efficiently activate the cognate amino acid substrate of the NRPS module in an ATP-PPi exchange assay (Konz, et al., 1999; Mootz & Marahiel, 1997), ATP-PPi exchange assays have been used to experimentally establish NRPS module specificities and novel NRPS codons. Recombinant A-domains of Modules 8, 5, 7 ,4 and 2 of the BT NRPS were produced and purified as described in Methods and Materials. Almost completely soluble recombinant A-domain proteins were obtained. A-domain specificities were determined in ATP-PPi exchange and aa Km assays (see Methods and Materials), and the results are shown in FIG. 5. […]

[2] = system: straight run broilers; assay: Growth promoting Studies 3-1 and 3-2, pelleted starter feed, batteries; type: in vivo, chicken; conditions: BT1583 12 ppm, BMD 50 ppm, COB 90 ppm, alone or combined; for 20-day cumulative weight gain, Mean: Table 18; for 21-day cumulative weight gain, estimated marginal Mean: Table 20; for 21-day cumulative weight gain, Duncan homogeneous subsets: Table 21; for 20-day cumulative feed conversion rate, Duncan homogeneous subsets: Table 25
Text: Eight (8) study repetitions per treatment were used, again with 4 birds per pen.

[3] = substrate: CC[C@H](C)[C@H](N)C(=O)O; assay: ATP-PPi exchange assay, Module 4 A-domain; type: biochemical, Brevibacillus texasporus; conditions: other: substrate 0.1 to 10 mM; pH 8.0
Description: as §1, with “Purification of the His10-tag recombinant proteins was achieved using the TALON metal affinity resins (BD Biosciences) under conditions recommended in the manual with modifications. Briefly, the E. coli cells were broken by sonication. Cell lysates were cleared by centrifugation at 25,000× g for one hour. His-tagged recombinant proteins were then incubated with the TALON resin, washed, and eluted with 500 mM imidazole.” left out
(§2) ATP-PPi exchange assay. […] The charcoal/water suspension was added to a scintillation vial containing 5.0 ml of scintillation fluid, and the bound radioactivity was determined by liquid scintillation counting. […]

[4] = substrate: CC(C)[C@H](N)C(=O)O; assay: ATP-PPi exchange assay, Module 8 A-domain; type: biochemical, Brevibacillus texasporus; conditions: other: substrate 0.1 to 10 mM; pH 8.0
Description: as §1, with “Purification of the His10-tag recombinant proteins was achieved using the TALON metal affinity resins (BD Biosciences) under conditions recommended in the manual with modifications. Briefly, the E. coli cells were broken by sonication. Cell lysates were cleared by centrifugation at 25,000× g for one hour. His-tagged recombinant proteins were then incubated with the TALON resin, washed, and eluted with 500 mM imidazole.” left out
as §2

[5] = substrate: CC(C)[C@H](N)C(=O)O; assay: ATP-PPi exchange assay, Module 5 A-domain; type: biochemical, Brevibacillus texasporus; conditions: other: substrate 0.1 to 10 mM; pH 8.0
Description: as §1, with “Purification of the His10-tag recombinant proteins was achieved using the TALON metal affinity resins (BD Biosciences) under conditions recommended in the manual with modifications. Briefly, the E. coli cells were broken by sonication. Cell lysates were cleared by centrifugation at 25,000× g for one hour. His-tagged recombinant proteins were then incubated with the TALON resin, washed, and eluted with 500 mM imidazole.” left out
as §2

[6] = substrate: CC[C@H](C)[C@H](N)C(=O)O; assay: ATP-PPi exchange assay, Module 5 A-domain; type: biochemical, Brevibacillus texasporus; conditions: other: substrate 0.1 to 10 mM; pH 8.0
Description: as §1, with “Purification of the His10-tag recombinant proteins was achieved using the TALON metal affinity resins (BD Biosciences) under conditions recommended in the manual with modifications. Briefly, the E. coli cells were broken by sonication. Cell lysates were cleared by centrifugation at 25,000× g for one hour. His-tagged recombinant proteins were then incubated with the TALON resin, washed, and eluted with 500 mM imidazole.” left out
as §2

Molecule | 20-day cumulative weight gain, Mean [2] | 21-day cumulative weight gain, estimated marginal Mean [2] | 21-day cumulative weight gain, Duncan homogeneous subsets [2] | 20-day cumulative feed conversion rate, Duncan homogeneous subsets [2] | other results
CSCC[C@H](N)C(=O)O [L-Met] |  |  |  |  | relative substrate activation (highest activity defined as 100%) [1]: 100%
CC[C@@]1([C@@H]2O[C@@H]([C@H]3O[C@@](O)(CO)[C@H](C)C[C@@H]3C)C[C@@H]2C)CC[C@H]([C@]2(C)CC[C@]3(C[C@H](O)[C@@H](C)[C@@H]([C@@H](C)[C@@H](OC)[C@H](C)C(=O)O)O3)O2)O1 [Monensin, reference compound] | 792.8438 | 792.844 | 792.8438 | 1.3712 | 
Bacitracin MD [BMD, reference compound] | 832.9688 | 832.969 | 832.9688 | 1.3397 | 
Module 4 A-domain protein (Brevibacillus texasporus) (protein) QLFEEQVDKNPNQIALVFKEEKLTYGEVNAKANQLAYVLRKQGVQPNDVIGIITERSPEMIIGILAIFKAGGAYMPIDPSYPAERIQYMLQDNQTKLLLVQKQEMIPANYQGEVLFLTQESWMHEETSNPAHITQAQALAYVMYTSGSTGEPKGILTTHQNIMKTVIHNGYVEITPGDCLSQLSNYAFDGSTFEIYGALLHGATLLLVTKEAVLNMNELARLIKKEQVTVSFMTTALFNTLVDLDITCFQSIRKVLFGGELASVKHVLKALDYLGEHRVINVYGPTETTVYATYYSVDHSMLTRASVPIGRPINNTKAYIVNTDGQPQPIGVVGELCIGGEGVACGYLNRPELTKKHFVDNPFVLGERMYCTGDLARFLPDGNIEYIGRMDEQVKIRGHRIELGEIEKVLLQHPAISETVLLAKRDEQGHSYLCAYIVGQVFWTVTELRQHLMESLPEYMVPSYFIEIEKLPLTANGKVDKRALPEPDRKMGSAYV |  |  |  |  | Km [3]: 500 µM
Module 8 A-domain protein (Brevibacillus texasporus) (protein) ALVFGEAQLTYRELNEKANQMARGLRKQGVLPDQVIGLLTDRSLEMIIAILAIFKAGGAYMPIDPSYPSERIQYMLADSRTHLLLVQKAEMIPANYQGEVLLLTEDSWMDENTDNLDLVNQAQDLAYVMYTSGSTGKPKGNLTTHQNIVKTIMNNGYMEITPNDRLLQLSNYAFDGSTFDIYSALLNGASLILVPTHVLMNPTDLASVIQDQHITVSFMTTSLFNTLVELDVTSLKHMRKVVFGGEKASIKHVEKALDYLGAGRLVNGYGPTETTVFATTYTVDHTIKETGIMPIGRPLNNTKVFILGADNQLQPIGALGELCVSGEGLARGYLNLPELTADRFVENPFMRGERMYRTGDLARWLPDGSIEYVGRIDEQVKIRGHRIELGEIEARLLEHPAISETVLLAKQDEQGHSFLCAYLVTNGAWSVAELRKHIKETLPDSMVPSYFIEIDKMPLTSNGKADKRALPEPDVQQVSSY |  |  |  |  | Km [4]: 2750 µM
Module 5 A-domain protein (Brevibacillus texasporus) (protein) DKTIHQQFEQKVEENPDQIALLFKDKEITYGQLNAKANQFARVLRKHGVQPDQVVGLITDRSIEMMIGILAILKAGGAYLPIDPSYPLERITYMLEDSQAQLLIVQEAAMIPEGYQGKVLLLAEECWMQEEASNLELINDAQDLAYVMYTSGSTGKPKGNLTTHQNILRTIINNGFIEIVPADRLLQLSNYAFDGSTFDIYSALLNGATLVLVPKEVMLNPMELARIVREQDITVSFMTTSLFHTLVELDVTSMKSIRKVVFGGEKASYKHVEKALDYLGEGRLVNGYGPTETTVFATTYTVDSSIKETGIVPIGRPLNNTSVYILNENNQPQPIGVPGELCVGGAGIARGYLNRPELTAERFVDNPFLVGDRMYRTGDMARFLPDGNIEYIGRMDEQVKIRGHRIELGEIEKSLLEYPAISEAVLVAKRDEQGHSYLCAYVVSTDQWTVAKVRQHILEALPEYMVPSYFVELEKLPLTSNGKVDKRALPEPDRVITNEYV |  |  |  |  | Km [5]: 1110 µM; Km [6]: 2780 µM
